Measured values as given in patent US5700774A, “Compositions comprising bone morphogenic proteins and truncated parathyroid hormone related peptide, and methods of inducing cartilage by administration of same” (Genetics Institute, Inc., priority 1996, dated 1997).

Tested on: cell lines derived from E13 mouse limb buds
Experiment: Northern analysis of tissue specific mRNA expression in limb bud cell lines
Type: cell-based
Details: PTHrP1-34 alone, 100 ng/ml, 1, 2, 4 or 8 days
Procedure: PTHrP was tested for its effect on cell lines derived from E13 mouse limb buds either alone or in combination with BMP-2. Cells were grown to confluence in DME medium supplemented with 10% fetal calf serum (FCS). At confluence, cells were transferred to DME medium supplemented with 1% FCS and cultured for 1, 2, 4 or 8 days in the presence of either BMP-2 (100 ng/ml), PTHrP1-34 (100 ng/ml)(Peninsular Laboratories Inc). or a combination of BMP-2 and PTHrP1-34. Northern analysis was used to determine expression of tissue specific mRNAs for cartilage (proteoglycan core protein, collagen type II and decorin), bone (osteocalcin, alkaline phosphatase and collagen type I) and hypertrophic cartilage (collagen type X).

Substance: PTHrP1-34: truncated peptide which comprises the first 34 amino acids of PTHrP (Peninsular Laboratories Inc)
- expression of any of the tissue specific mRNAs (cartilage, bone, hypertrophic cartilage markers): did not induce expression
